Like-named read-outs stand apart in the source and are kept apart here.
What was measured:
[1] = test system: P. falciparum Dd2 (PfLuc) line expressing firefly luciferase, asexual blood stage; assay: microbe, parasite or virus in culture; format: cell-based, Plasmodium falciparum; settings: Plasmodium falciparum
P. falciparum Dd2 = assay: SYBR green I asexual blood stage proliferation assay (96 h); format: cell-based, Plasmodium falciparum; settings: Plasmodium falciparum, DD2, 11-pt dose response, 96hr
[2] = DD2, read-out: CDD P. falciparum Luciferase ABS 11-pt Reconfirmation Dose Response (48hr): IC50 (μM), 11-pt dose response, 48hr
[3] = DD2, 8-pt dose response, 96hr, read-out: CDD P. falciparum Luciferase ABS 8-pt Reconfirmation Dose Response (96hr): IC50
[4] = DD2, 8-pt dose response, 96hr, read-out: CDD P. falciparum Luciferase ABS 8-pt Reconfirmation Dose Response (96hr): Maximum inhibition (%)
[5] = DD2, 11-pt dose response, 48hr, read-out: CDD P. falciparum Luciferase ABS 11-pt Reconfirmation Dose Response (48hr): Maximum inhibition (%)
[6] = DD2, 11-pt dose response, 96hr, read-out: CDD P. falciparum Luciferase ABS 11-pt Reconfirmation Dose Response (96hr): IC50
[7] = DD2, 11-pt dose response, 96hr, read-out: CDD P. falciparum Luciferase ABS 11-pt Reconfirmation Dose Response (96hr): Maximum inhibition (%)
[8] = Sybr Green I, read-out: CDD P. falciparum Sybr Green I ABS 11-pt Reconfirmation Dose Response (96hr): IC50
[9] = Sybr Green I, read-out: CDD P. falciparum Sybr Green I ABS 11-pt Reconfirmation Dose Response (96hr): Maximum inhibition (%)
[10] = DD2, read-out: P. falciparum Luciferase ABS 11-pt Reconfirmation Dose Response (48hr): IC50, 11-pt dose response, 48hr
[11] = DD2, 8-pt dose response, 96hr, read-out: P. falciparum Luciferase ABS 8-pt Reconfirmation Dose Response (96hr): IC50
[12] = DD2, 8-pt dose response, 96hr, read-out: P. falciparum Luciferase ABS 8-pt Reconfirmation Dose Response (96hr): Maximum inhibition (%)
[13] = DD2, 11-pt dose response, 96hr, read-out: P. falciparum Luciferase ABS 11-pt Reconfirmation Dose Response (96hr): IC50
[14] = DD2, 11-pt dose response, 96hr, read-out: P. falciparum Luciferase ABS 11-pt Reconfirmation Dose Response (96hr): Maximum inhibition (%)
[15] = read-out: P. falciparum Sybr Green I ABS 11-pt Reconfirmation Dose Response (96hr): IC50
[16] = read-out: P. falciparum Sybr Green I ABS 11-pt Reconfirmation Dose Response (96hr): Maximum inhibition (%)

| SMILES | IC50 [1, 2] | IC50 [1, 3] | Emax [1, 4] | Emax [1, 5] | IC50 [1, 6] | Emax [1, 7] | IC50 (P. falciparum Dd2; [8]) | Emax (P. falciparum Dd2; [9]) | IC50 [1, 10] | IC50 [1, 11] | Emax [1, 12] | Emax ([1]; DD2, 11-pt dose response, 48hr, read-out: P. falciparum Luciferase ABS 11-pt Reconfirmation Dose Response (48hr): Maximum inhibition (%)) | IC50 [1, 13] | Emax [1, 14] | IC50 (P. falciparum Dd2; [15]) | Emax (P. falciparum Dd2; [16]) | IC50 ([1]; 96 h incubation, Dd2 luciferase, read-out: 96 hour Pfluc IC50) |
| --- | --- | --- | --- | --- | --- | --- | --- | --- | --- | --- | --- | --- | --- | --- | --- | --- | --- |
| CC(C)C(CNCc1cccc2c1OCO2)N1CCOCC1 (centres unmarked) [DDD01077478] | > 12.5 µM | 0.56 µM | 86.4% | 52.1% | 2.57 µM | 85.2% | 1.89 µM | 62.1% | – | – | – | – | – | – | – | – | – |
| Cc1n[nH]cc1CNC1(c2ccc(F)cc2)CCCC1 [DDD01077733] | > 12.5 µM | 0.59 µM | 86.6% | 59% | 2.1 µM | 87% | > 1.39 µM | 59% | – | – | – | – | – | – | – | – | – |
| CC(NCCN1CCC(N(C)C)CC1)c1ccc(Cl)s1 (centres unmarked) [DDD01077862] | 4.33 µM | 0.92 µM | 87.7% | 83.2% | 1.35 µM | 97.3% | 2.87 µM | 89% | – | – | – | – | – | – | – | – | – |
| NC(=O)CN1CCC(Nc2ccnc3ccc(Cl)cc23)CC1 [DDD01078433] | 1.98 µM | 0.96 µM | – | 99.5% | 1.05 µM | 100% | 1.02 µM | 98.2% | – | – | – | – | – | – | – | – | – |
| CS(=O)(=O)CCCNC1(c2cccc(Cl)c2)CCCC1 [DDD01078792] | – | – | – | – | – | – | – | – | > 12.5 µM | 1.66 µM | 85% | 68.8% | 3.02 µM | 88% | > 4.16 µM | 73.6% | – |
| Cc1cccc(C2(NCCCS(C)(=O)=O)CCCC2)c1 [DDD01078804] | 12.1 µM | 0.66 µM | 85% | 56.6% | 1.93 µM | 85.9% | 6.57 µM | 74.2% | – | – | – | – | – | – | – | – | – |
| Cc1cn2c(n1)C(CNCc1ccc(C)s1)CCC2 (centres unmarked) [DDD01079169] | 1.64 µM | 0.63 µM | 93.4% | 93.3% | 0.471 µM | 100% | 2.25 µM | 83.8% | – | – | – | – | – | – | – | – | – |
| O=C(CN1CCCC(c2ccn[nH]2)C1)Nc1nc2c(s1)CCC2 (centres unmarked) [DDD01079497] | 0.618 µM | 0.22 µM | 90.5% | – | 0.451 µM | 97.6% | 0.192 µM | 73.2% | – | – | – | – | – | – | – | – | – |
| Cc1cc(C2CCCN(CC(=O)Nc3nc4c(s3)CCC4)C2)n[nH]1 (centres unmarked) [DDD01079504] | 0.456 µM | 0.28 µM | 81.5% | 84.9% | 0.388 µM | 97.8% | 0.179 µM | 71.3% | – | – | – | – | – | – | – | – | – |
| Cc1cc(Br)cnc1NCCN1CCC(N(C)C)CC1 [DDD01079597] | 7.01 µM | 0.51 µM | 92.4% | 87.3% | 1.15 µM | 99.5% | 3.19 µM | 92.7% | – | – | – | – | – | – | – | – | – |
| COc1cccc(CNC(CN2CCN(C)CC2)c2ccccc2)c1 (centres unmarked) [DDD01079897] | 2.58 µM | 0.38 µM | 91% | 83.2% | 0.79 µM | 98.1% | 1.65 µM | 94.5% | – | – | – | – | – | – | – | – | – |
| Cc1ccc(CNC(CN2CCN(C)CC2)c2ccccc2)cc1 (centres unmarked) [DDD01079898] | 4.31 µM | 0.26 µM | 91.3% | 88.2% | 1.21 µM | 98.8% | 1.36 µM | 95.9% | – | – | – | – | – | – | – | – | – |
| Cc1cccc(CNC(CN2CCN(C)CC2)c2ccccc2)c1 (centres unmarked) [DDD01079901] | 2.73 µM | 0.24 µM | 91.5% | 89.2% | 0.53 µM | 99% | 0.449 µM | 98.3% | – | – | – | – | – | – | – | – | – |
| NCC1(c2cccc(Br)c2)CCOCC1 [DDD01079955] | 4.79 µM | 0.84 µM | 87.3% | 58.8% | 1.63 µM | 85.9% | > 4.16 µM | 76.8% | – | – | – | – | – | – | – | – | – |
| COCCCN1CCCN(C(C)C(=O)Nc2cccc(I)c2)CC1 (centres unmarked) [DDD01080015] | 2.64 µM | 0.87 µM | 92% | 71.5% | 1.94 µM | 94.8% | 10.6 µM | 77.7% | – | – | – | – | – | – | – | – | – |
| c1cnn(C[C@@H]2C[C@@H]3CN(CC4CC4)CC[C@@H]3N2c2nccs2)c1 [DDD01081619] | – | – | – | – | – | – | – | – | 2.56 µM | 1.48 µM | 94.2% | – | 1.87 µM | 99.5% | 2.7 µM | 73.6% | – |
| Cc1ccc(CNC2CC3(CCN(CCO)CC3)c3ccccc32)s1 (centres unmarked) [DDD01082017] | 3.82 µM | 0.41 µM | 91% | 80.4% | 1.07 µM | 98% | 2.9 µM | 89.2% | – | – | – | – | – | – | – | – | – |
| COCCN1CCC2(CC1)CC(NCc1ccc(C)s1)c1ccccc12 (centres unmarked) [DDD01082023] | 7.58 µM | 0.63 µM | 90% | – | 1.55 µM | 96.4% | 2.42 µM | 82.4% | – | – | – | – | – | – | – | – | – |
| Cc1cc(C)cc(CN2C[C@H]3COC[C@H](N4CCN(C)CC4)[C@H]3C2)c1 [DDD01083756] | 2.44 µM | 0.23 µM | – | 79.9% | 0.791 µM | 97.2% | 1.08 µM | – | – | – | – | – | – | – | – | – | – |
| CC(C)N(C)Cc1cnc2n1CCN(C(=O)NC1CCCC1)C2 [DDD01085014] | > 12.5 µM | 0.4 µM | 87.1% | 50.3% | 0.478 µM | 91% | 3.09 µM | 52.8% | – | – | – | – | – | – | – | – | – |
| Fc1cnc(N2CCCC3(CCN(Cc4ccsc4)C3)C2)nc1 (centres unmarked) [DDD01085292] | 2.31 µM | 1 µM | 83.3% | 68.3% | 1.53 µM | 92.4% | > 4.16 µM | 70.7% | – | – | – | – | – | – | – | – | – |
| c1cc(-c2n[nH]cc2-c2ccnc(N3CCCCCC3)n2)ccn1 [DDD01235864] | > 4.16 µM | 0.00697 µM | 93.5% | 62.2% | 0.0308 µM | 93.5% | 0.00564 µM | – | – | – | – | – | – | – | – | – | 0.03 µM |
